Reference: ChEMBL document CHEMBL4483862, “Open-source discovery of chemical leads for next-generation chemoprotective antimalarials” (2018)

Test system: Plasmodium berghei
Test: Luciferase/luciferin-expressing antifolate-resistant parasites were used to infect a culture of HepG2 cells that were pre-incubated with compounds. Infected hepatocytes emit light due to the luciferase reaction. Assay results are presented as the percent inhibition of light emission compared to control. […]
Assay type: functional
Conditions: sporozoite; for IC90: read-out: LUCIFERASE INFECTION ASSAY - IC90
[1] = read-out: LUCIFERASE INFECTION ASSAY - IC50

Row | SMILES | IC90 | IC50 [1] | other results
1 | O=C(NC(=S)Nc1ccc(Oc2cc(C(F)(F)F)cc(C(F)(F)F)c2)cc1)c1ccccc1 | 4.3 µM | – | IC50 (PBLUC_HILL_SLOPE 1.93, PBLUC_R_SQUARED 0.641, read-out: LUCIFERASE INFECTION ASSAY - IC50): 1.37 µM
2 | O=c1c(Cl)c(Cl)cnn1-c1ccc(C(F)(F)F)cc1 | 5 µM | – | IC50 (FFLUC_HILL_SLOPE 1.51, FFLUC_R_SQUARED 0.59, HEPG2TOX_HILL_SLOPE 2.35, HEPG2TOX_R_SQUARED 0.929, PBLUC_HILL_SLOPE 2.87, PBLUC_R_SQUARED 0.611, read-out: LUCIFERASE INFECTION ASSAY - IC50): 2.33 µM
3 | Cc1ccc2c(c1)C(c1ccccc1C(F)(F)F)CC(=O)N2 (centres undefined) | > 10.8 µM | – | IC50 (HEPG2TOX_HILL_SLOPE 2.11, HEPG2TOX_R_SQUARED 0.713, PBLUC_HILL_SLOPE 2.64, PBLUC_R_SQUARED 0.143, read-out: LUCIFERASE INFECTION ASSAY - IC50): 5.8 µM
4 | COc1ccc2[nH]c(C(=O)Nc3ccc(F)cc3)c(C)c2c1 | 4.28 µM | – | IC50 (HEPG2TOX_HILL_SLOPE 0.946, HEPG2TOX_R_SQUARED 0.313, PBLUC_HILL_SLOPE 15.5, PBLUC_R_SQUARED 0.583, read-out: LUCIFERASE INFECTION ASSAY - IC50): 3.72 µM
5 | Cc1ccc(OCc2nc(C(=O)Nc3cccc(S(=O)(=O)NC(C)(C)C)c3)cs2)cc1 | > 10 µM | > 10 µM | –
6 | N#C/C(=C\c1cn(Cc2ccccc2)nc1-c1cccnc1)c1nc2ccccc2[nH]1 | 8.82 µM | – | IC50 (PBLUC_HILL_SLOPE 2.49, PBLUC_R_SQUARED 0.607, read-out: LUCIFERASE INFECTION ASSAY - IC50): 3.65 µM
7 | Cc1nc(NC(=O)c2ccc(-n3ccnc3)nc2)sc1SCC#N | > 10 µM | > 10 µM | –
8 | O=[N+]([O-])c1ccc(OCc2ccccc2)c(Cl)c1 | > 12.5 µM | > 12.5 µM | –
9 | CC(C)(C)c1csc(Cc2ccc(-c3csnn3)cc2)n1 | 8.68 µM | – | IC50 (HEPG2TOX_HILL_SLOPE 6.43, HEPG2TOX_R_SQUARED 0.485, PBLUC_HILL_SLOPE 2.92, PBLUC_R_SQUARED 0.738, read-out: LUCIFERASE INFECTION ASSAY - IC50): 4.09 µM
10 | O=C1Nc2ccc(Cl)cc2/C1=C/c1cn(Cc2ccccc2)nc1-c1cccnc1 | > 10 µM | – | IC50 (PBLUC_HILL_SLOPE 3.18, PBLUC_R_SQUARED 0.696, read-out: LUCIFERASE INFECTION ASSAY - IC50): 5.57 µM
11 | Fc1cccc(-c2cc3c(Nc4ccc5c(c4)OCCO5)nccc3[nH]2)c1 | 7.25 µM | – | IC50 (HEPG2TOX_HILL_SLOPE 14.3, HEPG2TOX_R_SQUARED 0.604, PBLUC_HILL_SLOPE 1.45, PBLUC_R_SQUARED 0.727, read-out: LUCIFERASE INFECTION ASSAY - IC50): 1.59 µM
12 | CCOC(=O)c1c(C)c(C)n(Cc2ccccc2)c1NC(=O)c1ccccc1 | > 8.77 µM | – | IC50 (PBLUC_HILL_SLOPE 3.81, PBLUC_R_SQUARED 0.298, read-out: LUCIFERASE INFECTION ASSAY - IC50): 6.38 µM
13 | OCc1cccc(Nc2nc(-c3ccsc3)nc3ccccc23)c1 | > 10 µM | > 10 µM | –
14 | CC(C)(C)c1ccccc1NC(=O)Nc1nc(C(N)Cc2ccc(C(F)(F)F)cc2)cs1 (centres undefined) | 3.44 µM | – | IC50 (PBLUC_HILL_SLOPE 9.7, PBLUC_R_SQUARED 0.271, read-out: LUCIFERASE INFECTION ASSAY - IC50): 2.74 µM
15 | Cc1nc(C(C)(C)C)nc2sc(C(=O)N(C)CC(=O)Nc3cccc(F)c3)c(C)c12 | 3.71 µM | – | IC50 (PBLUC_HILL_SLOPE 21.5, PBLUC_R_SQUARED 0.514, read-out: LUCIFERASE INFECTION ASSAY - IC50): 3.35 µM
16 | CCOC(=O)c1c(S(=O)(=O)Nc2cccc([N+](=O)[O-])c2)c(-c2ccccc2)n(-c2ccccc2)c1C | > 6.53 µM | > 6.53 µM | –

Row | SMILES | IC90 | IC50 [1] | other results
17 | CCS(=O)(=O)N1Cc2ccccc2CC1C(=O)Nc1nc2ccc(F)cc2s1 (centres undefined) | > 10 µM | – | IC50 (PBLUC_HILL_SLOPE 0.63, PBLUC_R_SQUARED 0.752, read-out: LUCIFERASE INFECTION ASSAY - IC50): 2.29 µM
18 | O=C(COC(=O)c1ccccc1Nc1cccc(C(F)(F)F)c1)c1ccc(C2CCCCC2)cc1 | > 10 µM | > 10 µM | –
19 | CCN(CC(=O)Nc1nnc(-c2ccccc2)o1)Cc1ccc(Br)s1 | 3.99 µM | – | IC50 (PBLUC_HILL_SLOPE 15.5, PBLUC_R_SQUARED 0.469, read-out: LUCIFERASE INFECTION ASSAY - IC50): 3.46 µM
20 | Cc1nc2ccccc2c(=O)n1/N=C/c1cn(-c2ccccc2)nc1-c1cccs1 | > 10 µM | – | IC50 (PBLUC_HILL_SLOPE 10.9, PBLUC_R_SQUARED 0.148, read-out: LUCIFERASE INFECTION ASSAY - IC50): 8.36 µM
21 | O=C(Nc1ccc(F)c(Cl)c1)c1ccccc1O | > 12.4 µM | > 12.4 µM | –
22 | Cc1cc2oc(=O)cc(COC(=O)c3ccccc3NCCO)c2cc1C | 5.07 µM | – | IC50 (HEPG2TOX_HILL_SLOPE 8.75, HEPG2TOX_R_SQUARED 0.762, PBLUC_HILL_SLOPE 95.5, PBLUC_R_SQUARED 0.164, read-out: LUCIFERASE INFECTION ASSAY - IC50): 4.95 µM
23 | O=C1NC(=O)N2CSCC12 (centres undefined) | > 20.9 µM | > 20.9 µM | –
24 | NS(=O)(=O)c1ccc(CCNc2cc(-c3ccccc3)c3cc4c(cc3n2)OCCO4)cc1 | 6.08 µM | 3.43 µM | –
25 | O=C(COCc1ccccc1)Nc1nc2ccccn2c1C(=O)NC1CCCCC1 | > 8.12 µM | > 8.12 µM | –
26 | Nc1ncc(-c2cc(F)c(F)c(F)c2)cc1-c1cccc(O)c1 | > 10.4 µM | > 10.4 µM | –
27 | CSc1sc(-c2cc[nH]n2)c(-c2ccccc2)c1C#N | > 11.1 µM | > 11.1 µM | –
28 | CC1CN(S(=O)(=O)NCC(c2ccccc2Cl)c2c[nH]c3ccccc23)CC(C)O1 (centres undefined) | > 10 µM | > 10 µM | –
29 | O=C(NC1CC1)c1csc(C(O)c2cccc(OC(F)(F)F)c2)n1 (centres undefined) | 0.901 µM | – | IC50 (HEPG2TOX_HILL_SLOPE 2.47, HEPG2TOX_R_SQUARED 0.742, PBLUC_HILL_SLOPE 2.02, PBLUC_R_SQUARED 0.793, read-out: LUCIFERASE INFECTION ASSAY - IC50): 0.304 µM
30 | O=C1C(Cl)=C(OC(CO)CO)C(=O)c2ccccc21 | 1.49 µM | – | IC50 (HEPG2TOX_HILL_SLOPE 4.19, HEPG2TOX_R_SQUARED 0.978, PBLUC_HILL_SLOPE 3.44, PBLUC_R_SQUARED 0.808, read-out: LUCIFERASE INFECTION ASSAY - IC50): 0.784 µM
31 | Cc1nc2c(C(N)=O)ncn2c(C)c1CCC(=O)Nc1ccc2oc3ccccc3c2c1 | 9.76 µM | – | IC50 (PBLUC_HILL_SLOPE 15.8, PBLUC_R_SQUARED 0.091, read-out: LUCIFERASE INFECTION ASSAY - IC50): 9.25 µM
32 | O=C(c1ccccc1)N1[C@@H]2CC[C@@H](C2)[C@H]1c1nc2cccc(OCc3ccccc3)c2[nH]1 | > 10 µM | – | IC50 (PBLUC_HILL_SLOPE 2.24, PBLUC_R_SQUARED 0.373, read-out: LUCIFERASE INFECTION ASSAY - IC50): > 10 µM
